Measured values published in PubChem BioAssay AID256 (DTP/NCI, 2004).
Where “and” joins values, the source holds several entries; their conditions need not be identical. Equal values may be shown once. Toxic doses and inconclusive results are not listed. Rule for the calls: active = survival T/C of 150% or more; inactive = T/C below 125% in these data.

System: CD2F1 mice, L1210 leukemia ip, survival T/C
Experiment: NCI In Vivo Anticancer Drug Screen. Data for tumor model L1210 Leukemia (intraperitoneal) in CD2F1 (CDF1) mice
Details: higher = longer survival
How it was run: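 Transplantable tumor in mice; compound-treated vs vehicle-treated groups. Read-out = treated/control ratio of the measured endpoint.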

[1] = endpoint: mean survival time, dose: 100.0 mg/kg/injection, schedule: Q04DX003 (ip), vehicle: saline with Tween-80
[2] = endpoint: mean survival time, dose: 200.0 mg/kg/injection, schedule: Q04DX003 (ip), vehicle: saline with Tween-80
[3] = endpoint: mean survival time, dose: 400.0 mg/kg/injection, schedule: Q04DX003 (ip), vehicle: saline with Tween-80
[4] = endpoint: mean survival time, dose: 100.0 mg/kg/injection, schedule: Q01DX001 (ip), vehicle: saline with Tween-80
[5] = endpoint: mean survival time, dose: 100.0 mg/kg/injection, schedule: Q04DX002 (ip), vehicle: saline with Tween-80
[6] = endpoint: mean survival time, dose: 200.0 mg/kg/injection, schedule: Q01DX001 (ip), vehicle: saline with Tween-80
[7] = endpoint: mean survival time, dose: 400.0 mg/kg/injection, schedule: Q01DX001 (ip), vehicle: saline with Tween-80
[8] = endpoint: mean survival time, dose: 50.0 mg/kg/injection, schedule: Q01DX009 (ip), vehicle: saline with Tween-80
[9] = endpoint: mean survival time, dose: 100.0 mg/kg/injection, schedule: Q01DX009 (ip), vehicle: saline with Tween-80
[10] = endpoint: mean survival time, dose: 25.0 mg/kg/injection, schedule: Q01DX009 (ip), vehicle: Klucel (hydroxypropylcellulose) (HPC)
[11] = endpoint: mean survival time, dose: 400.0 mg/kg/injection, schedule: Q01DX009 (ip), vehicle: saline with Tween-80
[12] = endpoint: mean survival time, dose: 100.0 mg/kg/injection, schedule: Q04DX003 (ip), vehicle: saline
[13] = endpoint: mean survival time, dose: 200.0 mg/kg/injection, schedule: Q04DX003 (ip), vehicle: saline
[14] = endpoint: mean survival time, dose: 400.0 mg/kg/injection, schedule: Q04DX003 (ip), vehicle: saline
[15] = endpoint: mean survival time, dose: 100.0 mg/kg/injection, schedule: Q01DX009 (ip), vehicle: Klucel (hydroxypropylcellulose) (HPC)
[16] = endpoint: mean survival time, dose: 200.0 mg/kg/injection, schedule: Q01DX009 (ip), vehicle: Klucel (hydroxypropylcellulose) (HPC)
[17] = endpoint: mean survival time, dose: 400.0 mg/kg/injection, schedule: Q01DX009 (ip), vehicle: Klucel (hydroxypropylcellulose) (HPC)

Measured: T/C

CCOc1ccccc1NC(=O)c1ccc(Cl)cc1
inactive: [1] 97 % of control | [2] 100 % of control | [3] 103 % of control

COC12C(COC(N)=O)C3=C(C(=O)C(C)=C(N4CC4C#N)C3=O)N1CC1NC12 (stereo not given)
inactive: endpoint: median survival time, dose: 0.19 mg/kg/injection, schedule: Q01DX001 (ip), vehicle: water 120 % of control | endpoint: median survival time, dose: 0.38 mg/kg/injection, schedule: Q01DX001 (ip), vehicle: water 121 % of control | endpoint: median survival time, dose: 0.75 mg/kg/injection, schedule: Q01DX001 (ip), vehicle: water 123 % of control | endpoint: median survival time, dose: 1.5 mg/kg/injection, schedule: Q01DX001 (ip), vehicle: water 121 % of control

O=C(O)CCC(=O)NNC(=O)c1cccnc1
inactive: endpoint: mean survival time, dose: 25.0 mg/kg/injection, schedule: Q04DX002 (ip), vehicle: saline with Tween-80 107 % of control | endpoint: mean survival time, dose: 50.0 mg/kg/injection, schedule: Q04DX002 (ip), vehicle: saline with Tween-80 104 % of control | [4] 106 % of control | [5] 107 % of control | [6] 106 % of control | [7] 98 % of control

O=C(O)c1c(Cl)c(Cl)c(Cl)c(Cl)c1Cl
inactive: [1] 98 % of control | [2] 98 % of control | [3] 98 % of control

O=C(CCCCCCCCC(=O)N/N=C/c1ccc(Cl)c(Cl)c1)N/N=C/c1ccc(Cl)c(Cl)c1
inactive: [4] 95 % of control | [6] 95 % of control | [7] 94 % of control

[Cl][Pt+2][Cl].[NH-]C1CCC1[NH-] (stereo not given)
inactive: endpoint: median survival time, dose: 2.5 mg/kg/injection, schedule: Q04DX003 (ip), vehicle: Klucel (hydroxypropylcellulose) (HPC) 111 % of control
active: endpoint: median survival time, dose: 10.0 mg/kg/injection, schedule: Q04DX003 (ip), vehicle: Klucel (hydroxypropylcellulose) (HPC) 156 % of control and 158 % of control | endpoint: median survival time, dose: 20.0 mg/kg/injection, schedule: Q04DX003 (ip), vehicle: Klucel (hydroxypropylcellulose) (HPC) 177 % of control

CCNC1(c2ccccc2)CCCCC1
inactive: endpoint: mean survival time, dose: 25.0 mg/kg/injection, schedule: Q04DX003 (ip), vehicle: saline 105 % of control

CCCCCCCCCCSS(=O)(=O)O
inactive: endpoint: mean survival time, dose: 25.0 mg/kg/injection, schedule: Q01DX001 (ip), vehicle: other 105 % of control | endpoint: mean survival time, dose: 50.0 mg/kg/injection, schedule: Q01DX001 (ip), vehicle: other 96 % of control | endpoint: mean survival time, dose: 100.0 mg/kg/injection, schedule: Q01DX001 (ip), vehicle: other 96 % of control

CC(C)NC(=O)C1C2CCC(CC2)C1C(=O)NC(C)C (stereo not given)
inactive: [1] 98 % of control | [2] 98 % of control | [3] 95 % of control

O=C(CO)c1ccc([N+](=O)[O-])cc1
inactive: endpoint: mean survival time, dose: 3.12 mg/kg/injection, schedule: Q01DX009 (ip), vehicle: saline with Tween-80 98 % of control and 101 % of control | endpoint: mean survival time, dose: 6.25 mg/kg/injection, schedule: Q01DX009 (ip), vehicle: saline with Tween-80 96 % of control and 101 % of control | endpoint: mean survival time, dose: 12.5 mg/kg/injection, schedule: Q01DX009 (ip), vehicle: saline with Tween-80 98 % of control and 101 % of control | endpoint: mean survival time, dose: 25.0 mg/kg/injection, schedule: Q01DX009 (ip), vehicle: saline with Tween-80 95 % of control and 96 % of control | [8] 101 % of control | [9] 95 % of control and 101 % of control

CC(=O)NC(C)C(=O)NC1C(C)OC(=O)C2=C(O)CC(O)C(O)C21 (stereo not given)
inactive: [1] 92 % of control | [2] 100 % of control | [3] 97 % of control

CCC(C(=N)C#N)[N+](=O)[O-] (stereo not given)
inactive: endpoint: mean survival time, dose: 100.0 mg/kg/injection, schedule: Q04DX002 (ip), vehicle: saline 91 % of control | endpoint: mean survival time, dose: 200.0 mg/kg/injection, schedule: Q04DX002 (ip), vehicle: saline 95 % of control | endpoint: mean survival time, dose: 400.0 mg/kg/injection, schedule: Q04DX002 (ip), vehicle: saline 91 % of control

CCOC(=O)C(C)(Br)C(=O)OCC
inactive: [8] 104 % of control | [9] 105 % of control

COC1C(O)=C2C(=O)OC(C)(O)/C=C/C=C\C=C/C=C/C(c3ccccc3)NC(=O)/C=C/C=C/C=C/C=C/C2(C)C1O (stereo not given)
inactive: endpoint: mean survival time, dose: 6.25 mg/kg/injection, schedule: Q01DX009 (ip), vehicle: Klucel (hydroxypropylcellulose) (HPC) 106 % of control | endpoint: mean survival time, dose: 12.5 mg/kg/injection, schedule: Q01DX009 (ip), vehicle: Klucel (hydroxypropylcellulose) (HPC) 95 % of control | [10] 103 % of control

FCCc1cccc(C(F)(F)F)c1
inactive: [4] 103 % of control | endpoint: mean survival time, dose: 100.0 mg/kg/injection, schedule: Q04DX003 (ip), vehicle: saline sonified 94 % of control | [6] 101 % of control | endpoint: mean survival time, dose: 200.0 mg/kg/injection, schedule: Q04DX003 (ip), vehicle: saline sonified 98 % of control | [7] 101 % of control | endpoint: mean survival time, dose: 400.0 mg/kg/injection, schedule: Q04DX003 (ip), vehicle: saline sonified 98 % of control

O=NN(CCCCl)C(=O)Nc1ccccc1
inactive: endpoint: mean survival time, dose: 100.0 mg/kg/injection, schedule: Q01DX001 (ip), vehicle: carboxymethylcellulose (CMC) 96 % of control | endpoint: mean survival time, dose: 200.0 mg/kg/injection, schedule: Q01DX001 (ip), vehicle: carboxymethylcellulose (CMC) 119 % of control

C/C(=N/Nc1ccc([N+](=O)[O-])cc1[N+](=O)[O-])c1ccccc1
inactive: [9] 91 % of control | endpoint: mean survival time, dose: 200.0 mg/kg/injection, schedule: Q01DX009 (ip), vehicle: saline with Tween-80 97 % of control | [11] 100 % of control

O=N/C=C/C(=N/Nc1ccc(C(=O)O)cc1)[N+](=O)[O-]
inactive: [12] 96 % of control | [13] 96 % of control | [14] 90 % of control

c1ccc(SSc2ccccc2)cc1
inactive: [1] 100 % of control

CC(=O)O[C@H]1CC[C@@]2(C)C(=CC[C@H]3[C@@H]4CC[C@H](O)[C@@]4(C)CC[C@@H]32)C1
inactive: [15] 97 % of control | [16] 90 % of control | [17] 95 % of control

COc1ccc(C2(C)OCCCC2([NH-])C[NH-])cc1.[Cl][Pt+2][Cl] (stereo not given)
inactive: endpoint: median survival time, dose: 10.0 mg/kg/injection, schedule: Q04DX003 (ip), vehicle: saline 105 % of control | endpoint: median survival time, dose: 20.0 mg/kg/injection, schedule: Q04DX003 (ip), vehicle: saline 103 % of control | endpoint: median survival time, dose: 40.0 mg/kg/injection, schedule: Q04DX003 (ip), vehicle: saline 105 % of control | endpoint: median survival time, dose: 80.0 mg/kg/injection, schedule: Q04DX003 (ip), vehicle: saline with Tween-80 100 % of control | endpoint: median survival time, dose: 80.0 mg/kg/injection, schedule: Q04DX003 (ip), vehicle: saline 95 % of control | endpoint: median survival time, dose: 160.0 mg/kg/injection, schedule: Q04DX003 (ip), vehicle: saline with Tween-80 110 % of control | endpoint: median survival time, dose: 320.0 mg/kg/injection, schedule: Q04DX003 (ip), vehicle: saline with Tween-80 115 % of control

COCCCNC(=O)C1=CCCN(C)C1
inactive: [12] 95 % of control | [13] 96 % of control | [14] 94 % of control

c1ccc(NCc2nc3ccccc3[nH]2)cc1
inactive: endpoint: mean survival time, dose: 12.5 mg/kg/injection, schedule: Q01DX005 (ip), vehicle: water 101 % of control | endpoint: mean survival time, dose: 25.0 mg/kg/injection, schedule: Q01DX005 (ip), vehicle: water 102 % of control

CN(C)C(=S)Oc1c([N+](=O)[O-])cc([N+](=O)[O-])cc1C(C)(C)C
inactive: [5] 91 % of control

[O-][n+]1c2ccccc2c(Oc2ccccc2)c2ccc3ccccc3c21
inactive: endpoint: mean survival time, dose: 25.0 mg/kg/injection, schedule: Q04DX003 (ip), vehicle: saline with Tween-80 98 % of control | endpoint: mean survival time, dose: 50.0 mg/kg/injection, schedule: Q04DX003 (ip), vehicle: saline with Tween-80 95 % of control | [1] 86 % of control

COC(=O)c1ccn2c1CCC2
inactive: [10] 92 % of control | endpoint: mean survival time, dose: 50.0 mg/kg/injection, schedule: Q01DX009 (ip), vehicle: Klucel (hydroxypropylcellulose) (HPC) 87 % of control | [15] 91 % of control | [16] 97 % of control | [17] 87 % of control

C=CCON
inactive: endpoint: mean survival time, dose: 75.0 mg/kg/injection, schedule: Q01DX001 (ip), vehicle: saline 100 % of control

Cc1cccc2c1NC(=O)C2=O
inactive: endpoint: median survival time, dose: 100.0 mg/kg/injection, schedule: Q04DX002 (ip), vehicle: saline with Tween-80 94 % of control | endpoint: median survival time, dose: 400.0 mg/kg/injection, schedule: Q04DX002 (ip), vehicle: saline with Tween-80 105 % of control

OC12Cc3ccccc3C1=NN(c1ccccc1)C2c1ccccc1 (stereo not given)
inactive: [9] 91 % of control | [11] 86 % of control
